# Tests used:
# Assay type in all cases: cell-based
# [1] = test system: human gingival keratinocytes (Gie-No3-B11), E. coli LPS; assay: Infection of human gingival keratinocytes by fluorescent E. coli LPS
# Procedure: (§1) One method to assess the potential of dicarboxylic acids to reduce gum disease and improve health was to assess the infection potential of gingival keratinocytes. In this model, human gingival keratinocytes (Gie-No3-B11, purchased from Creative Bioarray, Shirley, N.Y.) were maintained in a 37° C. incubator with 5% CO2. Cells were seeded in 100 μL cell suspension to each well (2K cells/well). Cells were treated 24 hours after seeding. Growth medium alone or growth medium with solvent vehicle was used as a negative control. Positive controls are either fluorescent E. coli LPS, or fluorescent S. minnesota LPS (https://corporate.thermofisher.com/us/en/index.html), fluorescence-label P. gingivalis outer membrane vesicles (OMV) with or without medium or solvent vehicle. P. gingivalis OMV was isolated following procedures described by Cecil et al. 2016 (Jessica D. Cecil, Neil M. O'Brien-Simpson, Jason C. Lenzo, James A. Holden, Yu-Yen Chen, William Singleton, Katelyn Gause, Yan Yan, Frank Caruso, and Eric C. Reynolds. Differential Responses of Pattern Recognition Receptors to Outer Membrane Vesicles of Three Periodontal Pathogens. iPLoS One. 2016; 11(4): e0151967). The OMV was stained with Lipophilic Tracer DiO following manufacturer's instruction (https://corporate.thermofisher.com/us/en/index.html). Compounds were dissolved in water and diluted in culture medium (all dilutions are deep yellow, or very acidic). All compounds and fluorescent LPS or OMV were added to cells at the same time. It is worth mentioning that cell culture medium changed immediately following adding the compounds from pink (pH7-7.4) to deep yellow (acidic). Images were taken in four sites in each well at a 3-hour interval over 48 to 120 hours in Incucyte® Live-Cell Analysis Systems (https://www.sartorius.com/en/products/live-cell-imaging-analysis/live-cell-analysis-instruments#id-789214). Data were processed and analyzed using R-programs.
# [2] = test system: human gingival keratinocytes (Gie-No3-B11), P. gingivalis OMV; assay: Infection of human gingival keratinocytes by fluorescence-label P. gingivalis outer membrane vesicles (OMV); details: for inhibition at 100000 µM: concentration 100 mM
# Procedure: as §1
# [3] = test system: human gingival keratinocytes (Gie-No3-B11), S. minnesota LPS; assay: Infection of human gingival keratinocytes by fluorescent S. minnesota LPS
# Procedure: as §1
# [4] = Homo sapiens, Keratinocyte, concentration 5 mM
# [5] = Homo sapiens, Keratinocyte, concentration 11.11 mM
# [6] = Homo sapiens, Keratinocyte, concentration 7.5 mM
# [7] = Homo sapiens, Keratinocyte, concentration 125 μM
structure (smiles),measurement,setting,value
O=C(O)CC(O)C(=O)O (stereo not drawn) [DL_Maleic_acid],Inhibition %,[1]; concentration 5 mM,36.3%
same,Inhibition %,[2]; concentration 11.11 mM,62.2%
same,Inhibition %,[3]; concentration 7.5 mM,59.9%
"O=C(O)C(O)C(O)C(=O)O (stereo not drawn) [DL_Tartaric_acid, DL tartaric acid]",Inhibition %,[2]; concentration 1 mM,57.7%
same,Inhibition %,[3]; concentration 1 mM,26.4%
"CC(C)(C(=O)O)C(=O)O [Dimethylmalonic_Acid, dimethylmalonic acid]",inhibition at 5000 µM,[1]; [4],33.8%
same,inhibition at 11110 µM,[2]; [5],81.3%
same,inhibition at 7500 µM,[3]; [6],54.5%
"O=C(O)/C=C/C(=O)O [Fumaric_acid, fumaric acid]",inhibition at 7500 µM,[1]; [6],31%
same,inhibition at 33330 µM,"[2]; Homo sapiens, Keratinocyte, concentration 33.33 mM",53.1%
same,inhibition at 7500 µM,[3]; [6],71.9%
"O=C(O)[C@H](O)[C@@H](O)C(=O)O [L_+_Tartaric_acid, L-tartaric acid]",Inhibition %,[2]; concentration 2.5 mM,73.6%
same,Inhibition %,[3]; concentration 10 mM,52.1%
"O=C(O)/C=C\C(=O)O [Maleic_acid, maleic acid]",inhibition at 5000 µM,[1]; [4],63.8%
same,inhibition at 100000 µM,"[2]; Homo sapiens, Keratinocyte",83.3%
same,inhibition at 3000 µM,"[3]; Homo sapiens, Keratinocyte, concentration 3 mM",73.8%
"O=C(O)CC(=O)O [Malonic_acid, malonic acid]",inhibition at 5000 µM,[1]; [4],35.9%
same,inhibition at 11110 µM,[2]; [5],69.3%
"CC(C(=O)O)C(=O)O [Methyl_malonic_acid, methylmalonic acid]",inhibition at 5000 µM,[1]; [4],30.7%
same,inhibition at 11110 µM,[2]; [5],63.6%
same,inhibition at 2500 µM,"[3]; Homo sapiens, Keratinocyte, concentration 2.5 mM",28.7%
"O=C(O)C(=O)O [Oxalic_acid, oxalic acid]",inhibition at 125 µM,[1]; [7],38.2%
same,inhibition at 100000 µM,"[2]; Homo sapiens, Keratinocyte",32.8%
same,inhibition at 125 µM,[3]; [7],22.5%
"O.O=C([O-])C(=O)[O-].[K+].[K+] [Potassium_oxalate_monohydrate, Potassium Oxalate Monohydrate]",Inhibition %,[1]; concentration 125 μM,21.5%
same,Inhibition %,[3]; concentration 125 μM,41.5%
"O=C(O)C(=O)C(=O)O [Sodium_mesoxalate_monohydrate, Sodium Mesoxalate Monohydrate]",inhibition at 5000 µM,[2]; [4],44.3%
"O=C(O)CCC(=O)O [Succinic_acid, succinic acid]",inhibition at 2000 µM,"[2]; Homo sapiens, Keratinocyte, concentration 2 mM",73%
same,inhibition at 1000 µM,"[3]; Homo sapiens, Keratinocyte, concentration 1 mM",42.3%

# — patent US20230133630A1, “Oral Care Compositions Comprising Dicarboxylic Acid” (The Procter & Gamble Company, priority 2021, published 2023)
